System: human whole blood
Assay: Human whole blood assay (LPS stimulated TNFα)
Format: cell-based
Settings: read-out: pIC50 potency, inhibition of TNF production (converted)
Experimental: Heparinised blood drawn from normal volunteers was dispensed (100 μl) into microtitre plate wells containing 1.0 μl of an appropriately diluted compound solution in DMSO. After 1 hr incubation at 37° C., 5% CO2, 25 μl LPS solution (S. typhosa) in RPMI 1640 (containing 1% L-glutamine and 1% Penicillin/streptomycin) was added (50 ng/ml final). The samples were incubated at 37° C., 5% CO2 for 20 hours, 50 μls physiological saline (0.138% NaCl) was added and diluted plasma was collected using a Biomek FX liquid handling robot after centrifugation at 1300 g for 10 min. Plasma TNFα content was determined by electrochemiluminescence assay using the Mesoscale (MSD) technology.
20 μl supernatant from PBMC plates or 40 μl from whole blood plates was transferred using the Biomek FX to a 96 well High-Bind MSD assay plate precoated with anti-hTNF alpha capture antibody and containing 25 μl of MSD human serum cytokine assay diluent. […] The plates were shaken at room temperature for a further 1 hour before washing again and adding 150 μl of MSD Read Buffer T (2×). Plates were then read on the MSD Sector 6000 plate reader. For the PBMC assay, supernatant addition to the MSD plates was followed immediately by 20 μl of MSD detection antibody, the plates were then sealed and shaken for 2 hours before addition of 90 μl of MSD Read Buffer P (2.5×). Plates were read on the MSD Sector 6000. […]

## COCCS(=O)(=O)N1CCC(c2c[nH]c3c(C(N)=O)cc(-c4ccc5c(c4)CN(C(C)C)C5)cc23)CC1 [Compound of formula (I), 5-[2-(1-methylethyl)-2,3-dihydro-1H-isoindol-5-yl]-3-(1-{[2-(methyloxy)ethyl]sulfonyl}-4-piperidinyl)-1H-indole-7-carboxamide]
  IC50: < 316 nM

From patent US8354539B2, “Indole derivatives as IKK2 inhibitors” (Glaxo Group Limited, priority 2009, dated 2013)
